# Patent US20180305332A1, “Bispiperidinyl Derivatives as Liver X Receptor Beta Agonists, Compositions, and Their Use” (Merck Sharp & Dohme Corp., priority 2015, published 2018)
# Experiments:
# [1] = biological target: T1, GST tagged LXRbeta LBD (ligand binding domain) (Homo sapiens, UniProt P55055); test: LanthaScreen TR-FRET Liver X Receptor Coactivator Assay, LXR beta-LBD; assay type: biochemical; settings: relative to reference T0901317; for EC50: Inflection Point (potency), co-activator recruitment, read-out: LXR beta IP; for Emax: activity at max dose (efficacy), read-out: LXR beta act @ max dose (%)
# T1 construct: purchased Invitrogen pv4658.pps
# T1 sequence (P55055 222-460 limits assumed): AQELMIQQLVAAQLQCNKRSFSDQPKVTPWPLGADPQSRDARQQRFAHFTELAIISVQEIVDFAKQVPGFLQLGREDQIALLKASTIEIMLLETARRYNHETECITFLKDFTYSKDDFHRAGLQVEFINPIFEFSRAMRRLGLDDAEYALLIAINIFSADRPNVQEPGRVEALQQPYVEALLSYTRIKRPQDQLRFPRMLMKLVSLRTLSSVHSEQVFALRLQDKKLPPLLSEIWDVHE
# Outline: (§1)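 Compound-induced coactivator recruitment measured by TR-FRET between a terbium anti-GST antibody bound to the GST-LBD (LXRα or LXRβ, human) and a fluorescein coactivator peptide, after incubation at room temperature. Potency (inflection point) and efficacy (Emax) referenced to T0901317.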
# [2] = biological target: T2, GST tagged LXRalpha LBD (ligand binding domain) (Homo sapiens, UniProt Q13133); test: LanthaScreen TR-FRET Liver X Receptor Coactivator Assay, LXR alpha-LBD; assay type: biochemical; settings: relative to reference T0901317; for EC50 / LXR alpha IP (nM): Inflection Point (potency), co-activator recruitment; for EC50: read-out: LXR alpha IP; for Emax: activity at max dose (efficacy), read-out: LXR alpha act @ max dose (%)
# T2 construct: purchased Invitrogen pv4655
# T2 sequence (Q13133 209-447 limits assumed): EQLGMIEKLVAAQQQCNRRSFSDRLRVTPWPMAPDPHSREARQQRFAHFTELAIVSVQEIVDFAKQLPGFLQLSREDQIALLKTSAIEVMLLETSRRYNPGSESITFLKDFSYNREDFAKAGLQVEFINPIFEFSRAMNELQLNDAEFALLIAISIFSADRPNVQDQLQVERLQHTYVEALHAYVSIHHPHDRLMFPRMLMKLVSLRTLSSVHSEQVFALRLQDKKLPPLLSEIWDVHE
# Outline: as §1
EC50 [1],Emax [1],EC50 [2],Emax [2],LXR alpha IP (nM) [2],SMILES
31 nM,116%,1170 nM,67%,,"CN(C)C(=O)c1ccc(N2CCC(C3CCN(C(=O)C(C)(C)c4ccccc4F)CC3)CC2)cc1Cl [Example A-80, 2-chloro-4-{1′-[2-(2-fluorophenyl)-2-methylpropanoyl]-4,4′-bipiperidin-1-yl}-N,N-dimethylbenzamide]"
137 nM,92%,1700 nM,38%,,"CN(Cc1ccon1)C(=O)c1ccc(N2CCC(C3CCN(C(=O)c4c(F)cccc4F)CC3)CC2)cc1Cl [Example E-16, 2-chloro-4-{1′-[(2,6-difluorophenyl)carbonyl]-4,4′-bipiperidin-1-yl}-N-(isoxazol-3-ylmethyl)-N-methylbenzamide]"
256 nM,108%,3230 nM,29%,,"CN(C)C(=O)c1ccc(N2CCC(C3CCN(C(=O)[C@@](C)(O)c4ccccc4)CC3)CC2)cc1Cl [Example A-53, 2-chloro-4-{1′-[(2S)-2-hydroxy-2-phenylpropanoyl]-4,4′-bipiperidin-1-yl}-N,N-dimethylbenzamide]"
21 nM,86%,359 nM,51%,,"O=C(c1ccc(N2CCC(C3CCN(C(=O)[C@](O)(c4ccccc4)C(F)(F)F)CC3)CC2)cc1Cl)N1CCC[C@H]1CO [Example E-63, (2R)-3-[1′-(3-chloro-4-{[(2S)-2-(hydroxymethyl)pyrrolidin-1-yl]carbonyl}phenyl)-4,4′-bipiperidin-1-yl]-1,1,1-trifluoro-3-oxo-2-phenylpropan-2-ol]"
55 nM,118%,1090 nM,44%,,"CN(C)C(=O)c1ccc(N2CCC(C3CCN(S(=O)(=O)c4c(Cl)cccc4C(F)(F)F)CC3)CC2)cc1Cl [Example A-105, 2-chloro-4-(1′-{[2-chloro-6-(trifluoromethyl)phenyl]sulfonyl}-4,4′-bipiperidin-1-yl)-N,N-dimethylbenzamide]"
45 nM,130%,57100 nM,48%,,"CN(C)C(=O)c1ccc(N2CCC(C3CCN(S(=O)(=O)c4ccccc4C#N)CC3)CC2)cc1Cl [Example A-102, 2-chloro-4-{1′-[(2-cyanophenyl)sulfonyl]-4,4′-bipiperidin-1-yl}-N,N-dimethylbenzamide]"
119 nM,103%,1350 nM,46%,,"CC(C)C(O)(C(=O)N1CCC(C2CCN(c3cc(Cl)c(C(=O)N(C)C)c(Cl)c3)CC2)CC1)C(F)(F)F (stereo not shown) [Example A-34, 2,6-dichloro-4-{1′-[2-hydroxy-3-methyl-2-(trifluoromethyl)butanoyl]-4,4′-bipiperidin-1-yl}-N,N-dimethylbenzamide]"
143 nM,74%,1520 nM,15%,,"CCC1CCCN1C(=O)c1ccc(N2CCC(C3CCN(C(=O)[C@](O)(c4ccccc4)C(F)(F)F)CC3)CC2)cc1Cl (stereo partly drawn) [Example E-30, (2R)-3-(1′-{3-chloro-4-[(2-ethylpyrrolidin-1-yl)carbonyl]phenyl}-4,4′-bipiperidin-1-yl)-1,1,1-trifluoro-3-oxo-2-phenylpropan-2-ol]"
237 nM,36%,857 nM,29%,,"COC(=O)c1ccc(N2CCC(C3CCN(C(=O)OC(C)(C)C)CC3)CC2)nc1Cl [Example E-1, tert-butyl 1′-[6-chloro-5-(methoxycarbonyl)pyridin-2-yl]-4,4′-bipiperidine-1-carboxylate]"
395 nM,55%,2250 nM,27%,,"O=C(c1ccc(N2CCC(C3CCN(C(=O)[C@](O)(c4ccccc4)C(F)(F)F)CC3)CC2)cc1Cl)N1CCC1CO (stereo partly drawn) [Example E-46, (2R)-3-[1′-(3-chloro-4-{[2-(hydroxymethyl)azetidin-1-yl]carbonyl}phenyl)-4,4′-bipiperidin-1-yl]-1,1,1-trifluoro-3-oxo-2-phenylpropan-2-ol]"
33 nM,109%,717 nM,32%,,"CN(C)C(=O)c1ccc(N2CCC(C3CCN(C(=O)C(C)(C)c4ccc(Cl)cc4Cl)CC3)CC2)cc1Cl [Example A-60, 2-chloro-4-{1′-[2-(2,4-dichlorophenyl)-2-methylpropanoyl]-4,4′-bipiperidin-1-yl}-N,N-dimethylbenzamide]"
289 nM,69%,,0%,NO IP,"COc1ccc(C2(C(=O)N3CCC(C4CCN(c5ccc(C(=O)N(C)C)c(Cl)c5)CC4)CC3)CC2)cc1 [Example A-48, 2-chloro-4-(1′-{[1-(4-methoxyphenyl)cyclopropyl]carbonyl}-4,4′-bipiperidin-1-yl)-N,N-dimethylbenzamide]"
12 nM,126%,211 nM,72%,,"O=C(c1ccc(N2CCC(C3CCN(C(=O)[C@](O)(c4ccccc4)C(F)(F)C(F)(F)F)CC3)CC2)cc1Cl)N1CCC[C@H]1CO [Example E-66, (2R)-1-[1′-(3-chloro-4-{[(2S)-2-(hydroxymethyl)pyrrolidin-1-yl]carbonyl}phenyl)-4,4′-bipiperidin-1-yl]-3,3,4,4,4-pentafluoro-1-oxo-2-phenylbutan-2-ol]"
86 nM,113%,1770 nM,51%,,"CN(C)C(=O)c1ccc(N2CCC(C3CCN(C(=O)C(F)(F)c4cccc(F)c4)CC3)CC2)cc1Cl [Example A-69, 2-chloro-4-{1′-[difluoro(3-fluorophenyl)acetyl]-4,4′-bipiperidin-1-yl}-N,N-dimethylbenzamide]"
200 nM,57%,,15%,NO IP,"CC1(C)CCN(C(=O)c2ccc(N3CCC(C4CCN(C(=O)[C@](O)(c5ccccc5)C(F)(F)F)CC4)CC3)cc2Cl)C1 [Example E-28, (2R)-3-(1′-{3-chloro-4-[(3,3-dimethylpyrrolidin-1-yl)carbonyl]phenyl}-4,4′-bipiperidin-1-yl)-1,1,1-trifluoro-3-oxo-2-phenylpropan-2-ol]"
141 nM,99%,1430 nM,43%,,"CC(C)(C)OC(=O)NCC1CN(C(=O)c2ccc(N3CCC(C4CCN(C(=O)[C@](O)(c5ccccc5)C(F)(F)F)CC4)CC3)cc2Cl)C1 [Example E-39, tert-butyl ({1-[(2-chloro-4-{1′-[(2R)-3,3,3-trifluoro-2-hydroxy-2-phenylpropanoyl]-4,4′-bipiperidin-1-yl}phenyl)carbonyl]azetidin-3-yl}methyl)carbamate]"
90 nM,67%,1690 nM,31%,,"O=C(c1ccc(N2CCC(C3CCN(C(=O)[C@](O)(c4ccccc4)C(F)(F)F)CC3)CC2)cc1Cl)N1CC(N2CCCCC2)C1 [Example E-44, (2R)-3-(1′-{3-chloro-4-[(3-piperidin-1-ylazetidin-1-yl)carbonyl]phenyl}-4,4′-bipiperidin-1-yl)-1,1,1-trifluoro-3-oxo-2-phenylpropan-2-ol]"
322 nM,69%,996 nM,56%,,"CC(C)(C)OC(=O)N1CCC(C2CCN(c3ccc(C(C)(C)O)c(Cl)c3)CC2)CC1 [Example E-69, tert-butyl 1′-[3-chloro-4-(1-hydroxy-1-methylethyl)phenyl]-4,4′-bipiperidine-1-carboxylate]"
251 nM,90%,2480 nM,21%,,"COc1cccc([C@](O)(C(=O)N2CCC(C3CCN(c4ccc(C(=O)N(C)C)c(Cl)c4)CC3)CC2)C(F)(F)F)c1 (single isomer, unassigned) [Example A-66]"
297 nM,52%,,39%,NO IP,"O=C(c1ccc(N2CCC(C3CCN(C(=O)[C@](O)(c4ccccc4)C(F)(F)F)CC3)CC2)cc1Cl)N1CC(n2cccn2)C1 [Example E-40, (2R)-3-[1′-(3-chloro-4-{[3-(1H-pyrazol-1-yl)azetidin-1-yl]carbonyl}phenyl)-4,4′-bipiperidin-1-yl]-1,1,1-trifluoro-3-oxo-2-phenylpropan-2-ol]"

SMILES,EC50 [1],Emax [1],EC50 [2],Emax [2],LXR alpha IP (nM) [2]
"CN(C)C(=O)c1ccc(N2CCC(C3CCN(C(=O)C(O)(c4ccccc4)C4CC4)CC3)CC2)cc1Cl (stereo not shown) [Example A-52, 2-chloro-4-{1′-[cyclopropyl(hydroxy)phenylacetyl]-4,4′-bipiperidin-1-yl}-N,N-dimethylbenzamide]",171 nM,96%,2070 nM,22%,
"CN(C)C(=O)c1ccc(N2CCC(C3CCN(C(=O)C(O)(c4ccccc4)C4CCC4)CC3)CC2)cc1Cl (stereo not shown) [Example A-51, 2-chloro-4-{1′-[cyclobutyl(hydroxy)phenylacetyl]-4,4′-bipiperidin-1-yl}-N,N-dimethylbenzamide]",128 nM,109%,1590 nM,33%,
